In US20060223775A1 (priority 1992, published 2006):

Key:
Format in all cases: cell-based
[1] = test system: normal (NHF) human fibroblast; assay: Cell killing mediated by MVM-TK virions and gancyclovir (WST-1 colorimetric assay); details: mock or MVM-TK infected, WST-1, daily
Experimental: (§1) The efficiency and selectivity of cells killing mediated by the MVM/P387-TK virions and gancyclovir were assessed by infecting normal (NHF) and transformed (NBK) human fibroblast. The results of said experiments are described in the enclosed FIGS. 8 and 9.
(§2) Cell growth was daily monitored with the WST-1 colorimetric assay (Boehringer).
(§3) In FIG. 9, NHF and NBK cells were infected at different MoI and the cell survival was assessed after 4 days with the WST-1 assay in presence or absence of GCV.

[2] = test system: transformed (NBK) human fibroblast; assay: as above; details: WST-1, daily
Experimental: as §1, §2, §3

[3] = test system: luciferase gene under the control of a promoter activated by tTA; assay: Luciferase expression in clone NBK.MZ.tTA-2 electroporated with pUHC13-1
Experimental: Selected stably transfected NBK324 clones (G418 selection) were assayed for luciferase expression upon transient transfection (in absence or presence of tetracycline) with the plasmid pUHC13-1 (Gossen and Bujard). The plasmid pUHC13-1 is an expression vector containing the luciferase gene under the control of a promoter activated by tTA.
The best clone selected, NBK.MZ.tTA-2, upon electroporation at 230 volts and 1050 μF with 4 μg of pUHC13-1 is charaterized by the following results (expressed in relative luciferase unit rlu/μg protein): […]

Row | SMILES | cell growth at different GCV concentrations [1] | GCV concentration at which growth was severely suppressed ([2]; MVM-TK infected NBK) | cell growth at different GCV concentrations ([2]; mock infected NBK) | luciferase expression (relative luciferase unit) ([3]; tetracycline 10 ng ml, 4 μg pUHC13-1, 230 volts, 1050 μF) | luciferase expression (relative luciferase unit) ([3]; tetracycline 100 ng/ml, 4 μg pUHC13-1) | luciferase expression (relative luciferase unit) ([3]; tetracycline 1 μg/ml, 4 μg pUHC13-1)
1 | Nc1nc(O)c2ncn(COC(CO)CO)c2n1 [GCV, gancyclovir] | not affected | ≥ 3 µg/mL | not affected | – | – | –
2 | CN(C)[C@@H]1C(O)=C(C(N)=O)C(=O)[C@@]2(O)C(O)=C3C(=O)c4c(O)cccc4[C@@](C)(O)[C@H]3C[C@@H]12 [tetracycline] | – | – | – | 19212 rlu/μg protein | 2268 rlu/μg protein | 1568 rlu/μg protein
